Data from the supplement of paper PMC10307832.

Assays:
Experiment in all cases: relative viability (nuclei count vs DMSO), 5 days (fraction); higher = more cells survive
BI-D1870 + Foretinib = compound: CC(C)CCN1c2nc(Nc3cc(F)c(O)c(F)c3)ncc2N(C)C(=O)C1C [BI-D1870] + COc1cc2c(Oc3ccc(NC(=O)C4(C(=O)Nc5ccc(F)cc5)CC4)cc3F)ccnc2cc1OCCCN1CCOCC1 [Foretinib] (partner 0.25 µM)
Summary of the method: (§1)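 For relative viability, nuclei counts in treated wells were divided by those in vehicle wells. Lung cancer cell lines had been pin-tool dosed in 1536-well plates the day after seeding and cultured for 5 days, then fixed and stained in one step (final 0.05% Triton X-100, 1% formaldehyde, 1 ug/ml Hoechst) and imaged at 4×. Doses were one drug alone or a fixed anchor-drug dose plus five library-drug doses (not always all listed) in √10 steps, and values are duplicate-plate medians.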

BI-D1870 + Crizotinib = compound: CC(C)CCN1c2nc(Nc3cc(F)c(O)c(F)c3)ncc2N(C)C(=O)C1C [BI-D1870] + C[C@@H](Oc1cc(-c2cnn(C3CCNCC3)c2)cnc1N)c1c(Cl)ccc(F)c1Cl [Crizotinib] (partner 1 µM)
Summary of the method: as §1

BI-D1870 + Linsitinib = compound: CC(C)CCN1c2nc(Nc3cc(F)c(O)c(F)c3)ncc2N(C)C(=O)C1C [BI-D1870] + C[C@]1(O)C[C@@H](c2nc(-c3ccc4ccc(-c5ccccc5)nc4c3)c3c(N)nccn32)C1 [Linsitinib] (partner 1 µM)
Summary of the method: as §1

Zebularine + Pictilisib = compound: O=c1ncccn1[C@@H]1O[C@H](CO)[C@@H](O)[C@H]1O [Zebularine] + CS(=O)(=O)N1CCN(Cc2cc3nc(-c4cccc5[nH]ncc45)nc(N4CCOCC4)c3s2)CC1 [Pictilisib] (partner 1 µM)
Summary of the method: as §1

Row | Cell Line | relative viability (BI-D1870 + Foretinib; first compound 0.04 µM) | relative viability (BI-D1870 + Foretinib; first compound 0.1265 µM) | relative viability (BI-D1870 + Foretinib; first compound 0.4 µM) | relative viability (BI-D1870 + Foretinib; first compound 1.265 µM) | relative viability (BI-D1870 + Foretinib; first compound 4 µM) | relative viability (BI-D1870 + Crizotinib; first compound 0.04 µM) | relative viability (BI-D1870 + Crizotinib; first compound 0.1265 µM) | relative viability (BI-D1870 + Crizotinib; first compound 0.4 µM) | relative viability (BI-D1870 + Crizotinib; first compound 1.265 µM) | relative viability (BI-D1870 + Crizotinib; first compound 4 µM) | relative viability (BI-D1870 + Linsitinib; first compound 0.04 µM) | relative viability (BI-D1870 + Linsitinib; first compound 0.1265 µM) | relative viability (BI-D1870 + Linsitinib; first compound 0.4 µM) | relative viability (BI-D1870 + Linsitinib; first compound 1.265 µM) | relative viability (BI-D1870 + Linsitinib; first compound 4 µM) | relative viability (Zebularine + Pictilisib; first compound 1 µM) | relative viability (Zebularine + Pictilisib; first compound 3.162 µM) | relative viability (Zebularine + Pictilisib; first compound 10 µM) | relative viability (Zebularine + Pictilisib; first compound 31.62 µM) | relative viability (Zebularine + Pictilisib; first compound 100 µM)
1 | NCI-H322M | 1.06 | 0.805 | 0.868 | 0.87 | 0.696 | 0.924 | 0.822 | 0.795 | 1.05 | 0.651 | 1.05 | 0.904 | 0.826 | 0.879 | 0.883 | 0.496 | 0.504 | 0.439 | 0.538 | 0.465
2 | NCI-H838 | 1.12 | 1.01 | 1.05 | 1.16 | 1.15 | 0.902 | 0.715 | 0.926 | 0.949 | 0.932 | 1.13 | 0.962 | 0.998 | 1.13 | 0.957 | 0.463 | 0.457 | 0.422 | 0.51 | 0.303
3 | HARA | 0.872 | 0.855 | 0.867 | 0.819 | 1.02 | 1.15 | 0.941 | 0.994 | 1.24 | 0.922 | 1.1 | 0.897 | 1.03 | 1.09 | 0.873 | 0.432 | 0.392 |  | 0.606 | 0.35
4 | NCI-H2087 | 1.16 | 1.23 | 1.27 | 1.12 | 0.982 | 0.918 | 0.914 | 1 | 1.11 | 0.739 | 1.09 | 1.02 | 1.17 | 1.01 | 0.699 | 0.92 | 0.703 | 0.583 | 0.752 | 0.368
5 | NCI-H1437 | 1.35 | 1.24 | 1.19 | 1.25 | 1.14 | 1.04 | 0.811 | 0.873 | 0.794 | 0.677 | 1.06 | 0.943 | 0.979 | 0.909 | 0.691 | 0.559 | 0.453 |  | 0.451 | 0.287
6 | NCI-H650 | 1.03 | 0.937 | 0.968 | 1.04 | 0.894 | 0.672 | 0.667 | 0.695 | 0.662 | 0.405 | 1.12 | 0.733 | 0.905 | 0.704 | 0.855 | 0.886 | 0.868 | 0.445 | 0.374 | 0.27
7 | COR-L23 | 1.01 | 0.894 | 0.938 | 1.01 | 0.905 | 0.703 | 0.639 | 0.692 | 0.72 | 0.544 | 0.896 | 0.927 | 0.92 | 0.996 | 0.536 | 0.926 | 0.776 | 0.291 | 0.287 | 0.24
8 | COR-L 105 | 1.29 | 1.12 | 1.1 | 1.47 | 1.12 | 0.858 | 0.79 | 0.777 | 0.754 | 0.574 | 1.11 | 0.813 | 0.926 | 0.856 | 0.666 | 0.388 | 0.381 | 0.373 | 0.464 | 0.41
9 | LK-2 | 1.32 | 1.13 | 1.34 | 1.51 | 1.6 | 0.187 | 0.233 | 0.232 | 0.274 | 0.264 | 0.616 | 0.518 | 0.512 | 0.497 | 0.457 | 0.617 | 0.747 | 0.266 | 0.383 | 0.36
10 | 201T | 1.22 | 1.02 | 1 | 1.29 | 1.05 | 1.02 | 1.02 | 1.04 | 1.07 | 1.03 | 1.05 | 1.09 | 1.06 | 1.04 | 1.07 | 0.729 | 0.743 | 0.709 | 0.671 | 0.703
11 | NCI-H596 | 0.882 | 0.918 | 0.889 | 0.849 | 0.958 | 0.97 | 0.982 | 0.981 | 1.01 | 1.16 | 1.13 | 1.07 | 1.05 | 1.17 | 1.07 | 0.304 | 0.373 | 0.361 | 0.42 | 0.362
12 | H3255 | 0.784 | 0.915 | 0.953 | 1.09 | 0.849 | 0.831 | 0.924 | 0.862 | 0.987 | 0.981 | 0.94 | 0.959 | 0.935 | 1.1 | 0.907 | 0.458 | 0.518 |  | 0.461 | 0.457
13 | NCI-H647 | 1.11 | 1.18 | 1.13 | 1.35 | 1.17 | 1.05 | 1.03 | 1.12 | 1.2 | 0.799 | 1.14 | 1.2 | 1.26 | 1.22 | 0.871 | 0.596 | 0.381 | 0.222 | 0.182 | 0.114
14 | NCI-H2023 | 0.919 | 0.635 | 0.823 | 0.851 | 0.945 | 0.724 | 0.525 | 0.579 | 0.612 | 0.497 | 0.72 | 0.507 | 0.569 | 0.605 | 0.543 | 0.262 | 0.272 | 0.215 | 0.272 | 0.201
15 | NCI-H23 | 1 | 1.03 | 0.986 | 0.83 | 0.781 | 0.527 | 0.424 | 0.509 | 0.667 | 0.559 | 0.911 | 0.385 | 0.586 | 0.61 | 0.685 | 0.536 | 0.444 |  | 0.499 | 0.436
16 | NCI-H1944 | 0.992 | 0.799 | 0.848 | 1.04 | 0.973 | 1.19 | 0.978 | 1.05 | 1.36 | 1.11 | 1.34 | 1.18 | 1.07 | 1.38 | 1.08 | 0.375 | 0.363 | 0.325 | 0.41 | 0.347
